# Reference: patent US7531543B2, “Phenylpiperazine cycloalkanol derivatives and methods of their use” (Wyeth, priority 2003, dated 2009)
# Counter-ions that a name gives are not always drawn.
# Target: T1, human hNET (Homo sapiens, UniProt P23975)
# T1 construct: expressed in transfected cells; host or cells: MDCK-Net6 (MDCK cells stably transfected with hNET)
# Assay: Norepinephrine (NE) uptake assay in MDCK-Net6 cells
# Assay type: cell-based
# Settings: [3H]NE uptake, MDCK-Net6 cells stably transfected with hNET; for inhibition at 1 µM: 1 μM test compound
# Description: MDCK-Net6 cells, stably transfected with human hNET (Pacholczyk, T., R. D. Blakely, and S. G. Amara, Nature, 1991, 350(6316): p. 350-4) were cultured in growth medium containing high glucose DMEM (Gibco, Cat. No. 11995), 10% FBS (dialyzed, heat-inactivated, US Bio-Technologies, Lot FBD1129HI) and 500 µg/ml G418 (Gibco, Cat. No. 10131). Cells were plated at 300,000/T75 flask and cells were split twice weekly. The JAR cell line (human placental choriocarcinoma) was purchased from ATCC (Cat. No. HTB-144). The cells were cultured in growth medium containing RPMI 1640 (Gibco, Cat. No. 72400), 10% FBS (Irvine, Cat. No. 3000), 1% sodium pyruvate (Gibco, Cat. No. 1136) and 0.25% glucose. Cells were plated at 250,000 cells/T75 flask and split twice weekly. For all assays, cells were plated in Wallac 96-well sterile plates (PerkinElmer, Cat. No. 3983498).
# Norepinephrine (NE) Uptake Assay
# On day 1, cells were plated at 3,000 cells/well in growth medium and maintained in a cell incubator (37° C., 5% CO2). On day 2, growth medium was replaced with 200 μl of assay buffer (25 mM HEPES; 120 mM NaCl; 5 mM KCl; 2.5 mM CaCl2; 1.2 mM MgSO4; 2 mg/ml glucose (pH 7.4, 37° C.)) containing 0.2 mg/ml ascorbic acid and 10 μM pargyline. Plates containing cells with 200 μl of assay buffer were equilibrated for 10 minutes at 37° C. prior to addition of compounds. A stock solution of desipramine was prepared in DMSO (10 mM) and delivered to triplicate wells containing cells for a final test concentration of 1 μM. Data from these wells were used to define non-specific NE uptake (minimum NE uptake). Test compounds were prepared in DMSO (10 mM) and diluted in assay buffer according to test range (1 to 10,000 nM). Twenty-five microliters of assay buffer (maximum NE uptake) or test compound were added directly to triplicate wells containing cells in 200 μl of assay buffer. The cells in assay buffer with test compounds were incubated for 20 minutes at 37° C. To initiate the NE uptake, [^3H]NE diluted in assay buffer (120 nM final assay concentration) was delivered in 25 μl aliquots to each well and the plates were incubated for 5 minutes (37° C.). The reaction was terminated by decanting the supernatant from the plate. The plates containing cells were washed twice with 200 μl assay buffer (37° C.) to remove free radioligand. The plates were then inverted, left to dry for 2 minutes, then reinverted and air-dried for an additional 10 minutes. The cells were lysed in 25 μl of 0.25 N NaOH solution (4° C.), placed on a shake table and vigorously shaken for 5 minutes. After cell lysis, 75 μl of scintillation cocktail was added to each well and the plates were sealed with film tape. The plates were returned to the shake table and vigorously shaken for a minimum of 10 minutes to ensure adequate partitioning of organic and aqueous solutions. The plates were counted in a Wallac Microbeta counter (PerkinElmer) to collect the raw cpm data.
# For each experiment, a data stream of cpm values collected from the Wallac Microbeta counter was downloaded to a Microsoft Excel statistical application program. Calculations of EC50 values were made using the transformed-both-sides logistic dose response program written by Wyeth Biometrics Department. The statistical program uses mean cpm values from wells representing maximum binding or uptake (assay buffer) and mean cpm values from wells representing minimum binding or uptake ((1 μM desipramine (hNET) or 1 μM paroxetine (hSERT)). Estimation of the EC50 value was completed on a log scale and the line was fit between the maximum and minimum binding or uptake values. All graphic data representation was generated by normalizing each data point to a mean percent based on the maximum and minimum binding or uptake values. The EC50 values reported from multiple experiments were calculated by pooling the raw data from each experiment and analyzing the pooled data as one experiment.
# T1 sequence (P23975 whole entry): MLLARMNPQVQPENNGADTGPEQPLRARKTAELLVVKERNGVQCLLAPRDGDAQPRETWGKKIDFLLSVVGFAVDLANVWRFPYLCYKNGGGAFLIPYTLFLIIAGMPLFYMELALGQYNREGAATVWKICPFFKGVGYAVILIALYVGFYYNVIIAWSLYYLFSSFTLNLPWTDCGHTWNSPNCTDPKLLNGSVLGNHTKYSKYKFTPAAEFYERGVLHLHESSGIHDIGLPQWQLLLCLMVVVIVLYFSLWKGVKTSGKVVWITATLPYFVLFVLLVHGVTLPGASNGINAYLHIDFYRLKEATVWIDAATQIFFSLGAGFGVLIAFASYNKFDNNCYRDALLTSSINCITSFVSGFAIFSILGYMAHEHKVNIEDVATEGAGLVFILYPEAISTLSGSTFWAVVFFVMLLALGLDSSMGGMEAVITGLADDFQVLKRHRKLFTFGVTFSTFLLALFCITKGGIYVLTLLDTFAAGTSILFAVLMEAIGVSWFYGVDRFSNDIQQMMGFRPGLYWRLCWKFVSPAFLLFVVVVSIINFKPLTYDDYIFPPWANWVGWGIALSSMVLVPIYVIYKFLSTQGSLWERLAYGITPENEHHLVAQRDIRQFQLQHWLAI
"EC50 (test range 1 to 10,000 nM) [nM]",Structure (SMILES),inhibition at 1 µM [%]
,"CN1CCN(CC(c2cccc(Br)c2)C2(O)CCCCCCC2)CC1 (centres unmarked) [Example 40, 1-[1-(3-bromophenyl)-2-(4-methylpiperazin-1-yl)ethyl]cyclooctanol dihydrochloride]",44
,"OC1(C(CN2CCNCC2)c2ccc(Br)cc2)CCCCC1 (centres unmarked) [Example 17, 1-[1-(4-bromophenyl)-2-piperazin-1-ylethyl]cyclohexanol dihydrochloride]",46
540,"OC1([C@@H](CN2CCNCC2)c2cccc(Cl)c2)CCCCC1 [Example 35, 1-[(1R)-1-(3-chlorophenyl)-2-piperazin-1-ylethyl]cyclohexanol dihydrochloride]",
,"OC1(C(CN2CCNCC2)c2cccc(Cl)c2)CCC1 (centres unmarked) [Example 23, 1-[1-(3-chlorophenyl)-2-piperazin-1-ylethyl]cyclobutanol dihydrochloride]",28
,"OC1(C(CN2CCNCC2)c2cccc(Br)c2)CCCCCCC1 (centres unmarked) [Example 37, 1-[1-(3-bromophenyl)-2-piperazin-1-ylethyl]cyclooctanol dihydrochloride]",28
,"OC1(C(CN2CCNCC2)c2cccc(C(F)(F)F)c2)CCC1 (centres unmarked) [Example 14, 1-{2-piperazin-1-yl-1-[3-(trifluoromethyl)phenyl]ethyl}cyclobutanol dihydrochloride]",27
,"OC1(C(CN2CCNCC2)c2cccc(Br)c2)CCCCCC1 (centres unmarked) [Example 7, 1-[1-(3-bromophenyl)-2-piperazin-1-ylethyl]cycloheptanol dihydrochloride]",86
,"CN1CCN(CC(c2cccc(Cl)c2)C2(O)CCC2)CC1 (centres unmarked) [Example 24, 1-[1-(3-chlorophenyl)-2-(4-methylpiperazin-1-yl)ethyl]cyclobutanol dihydrochloride]",34
